Results taken from patent US20130085157A1, “ARYLSUBSTITUTED THIAZOLOTRIAZOLES AND THIAZOLOIMIDAZOLES” (priority 2011, published 2013).

Target: T1, human TGR5 bile acid receptor (Homo sapiens, UniProt Q8TDU6)
T1 construct: The full length TGR5 gene is inserted into pCMV6 vector DNA (Origene); expressed in transfected cells
T1 sequence (Q8TDU6 1-330): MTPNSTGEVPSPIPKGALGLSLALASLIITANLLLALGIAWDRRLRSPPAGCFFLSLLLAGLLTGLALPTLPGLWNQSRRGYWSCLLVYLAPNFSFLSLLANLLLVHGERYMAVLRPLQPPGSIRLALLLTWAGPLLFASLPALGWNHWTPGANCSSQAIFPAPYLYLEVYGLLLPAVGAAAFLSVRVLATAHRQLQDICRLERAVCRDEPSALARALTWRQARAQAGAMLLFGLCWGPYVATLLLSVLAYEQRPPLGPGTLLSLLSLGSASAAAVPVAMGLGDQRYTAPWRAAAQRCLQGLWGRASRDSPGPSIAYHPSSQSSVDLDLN
Assay: TGR5 receptor activation, HTRF cAMP assay in 293/humanTGR5 cells
Type: cell-based
Conditions: activation of 293/humanTGR5 (HEK 293) cells measured by cAMP levels, 30 minutes at 37° C., relative to vehicle and 50 μM of Compound 7
Description: Transformed E. coli stocks containing cDNA for the full length human TGR5 bile acid receptor (IMAGE clone #5221127) are obtained from Open Biosystems. Cultures are grown in LB broth, and cDNA is purified using Qiagen mini-prep columns. The full length TGR5 gene is inserted into pCMV6 vector DNA (Origene) by ligation followed by transformation in competent E. coli. Ampicillin-resistant clones are isolated and vector DNA containing the TGR5 gene is verified by DNA sequence analysis (Sequetech). The resulting plasmid is transfected into HEK 293 cells using FuGene 6 transfection reagent and the transfected cells are grown in the presence of 1 mg/mL G418 selection antibiotic. A number of individual G418 resistant colonies are isolated by using 150 μL cloning cylinders. The resulting 293/humanTGR5 expressing cell lines are then screened for responsiveness to the natural ligand lithocholic acid. A single clone is chosen for expansion and use for screening, this clone reproducibly responds to known receptor agonists for over 30 passages. The 293/humanTGR5 cells are maintained in DMEM/F12 media supplemented with 10% fetal bovine serum (Hyclone) and 15 mM HEPES buffer (Invitrogen). Cells are passaged twice weekly and maintained at densities to assure logarithmic growth. For use in cAMP assays, cells are trypsinzied, centrifuged, and resuspended in DMEM/F12 media supplemented with 0.5% FBA and 15 mM HEPES buffer. These cells are adjusted to a density which allows distribution of 25,000 cells in 20 μL of volume to each well of a half-area 96-well plate (Greiner Bio-One). 20 μL of test compounds diluted to a 2× concentration in DMEM/F12 media with 0.5% FBS are then added to the 96-well plates, and the plates are then incubated for 30 minutes at 37° C. in a 5% CO2 atmosphere. Levels of resulting cAMP for each treatment condition are then determined by use of an HTRF cAMP assay (CisBio) following the manufactures directions. The resulting data is analyzed using IDBX XLfit software and IC50 determinations are made for each test compound by comparing cAMP levels to vehicle controls (unstimulated) and TGR5 agonist-activated cells (50 μM of Compound 7, a reported TGR5 receptor agonist, J. Med. Chem., 2009, 52 (24), pp 7962-7965). Specificity for human TGR5 agonist activity is confirmed for compounds of interest by testing them against cell lines over expressing the mouse TGR5 receptor, human GPR119 receptor, and parent cell lines followed by measurement of resulting cAMP levels. Assay responsiveness is controlled for by measuring cAMP levels induced by 50 μM Forskolin in cells, a known adenylyl […] activator.

Q: For Cc1ccc(N(C)C(=O)c2sc3nncn3c2-c2ccccc2)cc1Cl [Example 1, N-(3-chloro-4-methyl-phenyl)-N-methyl-5-phenyl-thiazolo[2,3-c][1,2,4]triazole-6-carboxamide], which EC50 is on record?
A: 0.5 to 5 µM

Q: Which EC50 does the source give for Cc1ccc(N(C)C(=O)c2sc3nnc(C)n3c2-c2ccccc2)cc1Cl [Example 2, N-(3-chloro-4-methyl-phenyl)-N,3-dimethyl-5-phenyl-thiazolo[2,3-c][1,2,4]triazole-6-carboxamide] here?
A: 0.5 to 5 µM

Q: For Cc1ccc(N(C)C(=O)c2sc3nnc(SCc4ccc5c(c4)OCO5)n3c2-c2ccccc2)cc1Cl [Example 3, 3-(1,3-Benzodioxol-5-ylmethylsulfanyl)-N-(3-chloro-4-methyl-phenyl)-N-methyl-5-phenyl-thiazolo[2,3-c][1,2,4]triazole-6-carboxamide], which EC50 is on record?
A: 0.5 to 5 µM

Q: For c1ccc(-c2csc3nnc(CCc4ccc5c(c4)OCO5)n23)cc1 [Example 4, 3-[2-(1,3-benzodioxol-5-yl)ethyl]-5-phenyl-thiazolo[2,3-c][1,2,4]triazole], which EC50 is on record?
A: 5 to 50 µM

Q: Which EC50 does the source give for c1ccc(-c2csc3nnc(SCc4ccc5c(c4)OCO5)n23)cc1 [Example 6, 3-(1,3-Benzodioxol-5-ylmethylsulfanyl)-5-phenyl-thiazolo[2,3-c][1,2,4]triazole] here?
A: 5 to 50 µM

Q: How did the EC50 turn out when OC(c1ccc(F)cc1)c1sc2nnc(SCc3ccc4c(c3)OCO4)n2c1-c1ccccc1 (centres unmarked) [Example 7, [3-(1,3-Benzodioxol-5-ylmethylsulfanyl)-5-phenyl-thiazolo[2,3-c][1,2,4]triazol-6-yl]-(4-fluorophenyl)methanol] was run?
A: 5 to 50 µM

Q: Which EC50 does the source give for Cc1nnc2sc(SCc3c(F)cccc3Cl)c(-c3ccccc3)n12 [Example 8, 6-[(2-Chloro-6-fluoro-phenyl)methylsulfanyl]-3-methyl-5-phenyl-thiazolo[2,3-c][1,2,4]triazole] here?
A: 5 to 50 µM

Q: Which EC50 does the source give for COc1ccc(C(C)(C)c2sc3nnc(SCc4c(F)cccc4Cl)n3c2-c2ccccc2)cc1OC [Example 11, 3-[(2-chloro-6-fluoro-phenyl)methylsulfanyl]-6-[1-(3,4-dimethoxyphenyl)-1-methyl-ethyl]-5-phenyl-thiazolo[2,3-c][1,2,4]triazole] here?
A: 0.5 to 5 µM

Q: How did the EC50 turn out when C=C(c1ccc(OC)c(OC)c1)c1sc2nnc(SCc3c(F)cccc3Cl)n2c1-c1ccccc1 [Example 12, 3-[(2-chloro-6-fluoro-phenyl)methylsulfanyl]-6-[1-(3,4-dimethoxyphenyl)vinyl]-5-phenyl-thiazolo[2,3-c][1,2,4]triazole] was run?
A: 5 to 50 µM

Q: Which EC50 does the source give for Cc1ccc(Nc2nnc3scc(-c4cc(Cl)ccc4Cl)n23)cc1Cl [Example 14, N-(3-chloro-4-methylphenyl)-5-(2,5-dichlorophenyl)thiazolo[2,3-c][1,2,4]triazol-3-amine] here?
A: 0.5 to 5 µM

Q: With Fc1cccc(Cl)c1CSc1ncc2scc(-c3cccc(Cl)c3)n12 [Example 15, 5-[(2-chloro-6-fluoro-phenyl)methylsulfanyl]-3-(3-chlorophenyl)imidazo[5,1-b]thiazole] as the molecule, how does the EC50 read?
A: < 0.5 µM

Q: Which EC50 does the source give for COc1ccc(Cc2sc3nnc(SCc4c(F)cccc4Cl)n3c2-c2cccc(Cl)c2)cc1OC [Example 17, 3-[(2-Chloro-6-fluoro-phenyl)methylsulfanyl]-5-(3-chlorophenyl)-6-[(3,4-dimethoxyphenyl)methyl]thiazolo[2,3-c][1,2,4]triazole] here?
A: 0.5 to 5 µM

Q: With COc1ccc(Cc2sc3cnc(SCc4c(F)cccc4Cl)n3c2-c2cccc(Cl)c2)cc1OC [Example 18, 5-[(2-chloro-6-fluoro-phenyl)methylsulfanyl]-3-(3-chlorophenyl)-2-[(3,4-dimethoxyphenyl)methyl]imidazo[5,1-b]thiazole] as the molecule, how does the EC50 read?
A: < 0.5 µM

Q: Which EC50 does the source give for Fc1cccc(Cl)c1CSc1nnc2scc(-c3ccccc3)n12 [Example 19] here?
A: 5 to 50 µM

Q: How did the EC50 turn out when Fc1ccc(-c2csc3nnc(SCc4ccc5c(c4)OCO5)n23)cc1 [Example 24] was run?
A: 5 to 50 µM

Q: For Clc1ccc(CSc2nnc3scc(-c4ccccc4)n23)cc1 [Example 26], which EC50 is on record?
A: 0.5 to 5 µM

Q: With c1ccc(CCSc2nnc3scc(-c4ccccc4)n23)cc1 [Example 30] as the molecule, how does the EC50 read?
A: 5 to 50 µM

Q: Which EC50 does the source give for c1ccc(-c2csc3nnc(SCc4ccc5cnccc5c4)n23)cc1 [Example 43] here?
A: 5 to 50 µM

Q: For c1ccc(-c2csc3nnc(Oc4ccc5c(c4)OCO5)n23)cc1 [Example 46], which EC50 is on record?
A: 5 to 50 µM

Q: Which EC50 does the source give for CCc1sc2nnc(SCc3ccc4c(c3)OCO4)n2c1-c1ccccc1 [Example 48] here?
A: 5 to 50 µM

Q: Which EC50 does the source give for COc1cc(-c2csc3nnc(SCc4ccc5c(c4)OCO5)n23)ccc1F [Example 50] here?
A: 0.5 to 5 µM

Q: For Fc1ccc(-c2csc3nnc(SCc4ccc5c(c4)OCO5)n23)cc1Br [Example 53], which EC50 is on record?
A: < 0.5 µM

Q: How did the EC50 turn out when CN(C(=O)C(C)(C)C)c1cc(F)ccc1-c1csc2nnc(SCc3ccc4c(c3)OCO4)n12 [Example 59] was run?
A: 5 to 50 µM

Q: Which EC50 does the source give for COc1ccc(-c2csc3nnc(SCc4ccc5c(c4)OCO5)n23)c(Cl)c1 [Example 65] here?
A: 0.5 to 5 µM

Q: With COC(=O)c1cccc(CSc2nnc3scc(-c4cccc(Br)c4)n23)c1 [Example 66] as the molecule, how does the EC50 read?
A: 0.5 to 5 µM

Q: How did the EC50 turn out when Brc1cccc(-c2csc3nnc(SCc4ccc5c(c4)OCO5)n23)c1 [Example 69] was run?
A: < 0.5 µM

Q: How did the EC50 turn out when Clc1cccc(-c2csc3nnc(SCc4ccc5c(c4)OCO5)n23)c1Cl [Example 76] was run?
A: 0.5 to 5 µM

Q: Which EC50 does the source give for c1cc(-c2csc3nnc(SCc4ccc5c(c4)OCO5)n23)cc(C2CC2)c1 [Example 80] here?
A: 0.5 to 5 µM

Q: With COc1ccc(Cc2sc3nnc(SCc4c(F)cccc4Cl)n3c2-c2ccc(F)cc2)cc1OC [Example 83] as the molecule, how does the EC50 read?
A: 0.5 to 5 µM

Q: With Cc1ccc(-c2csc3nnc(SCc4c(F)cccc4Cl)n23)cc1Cl [Example 86] as the molecule, how does the EC50 read?
A: 0.5 to 5 µM

Q: How did the EC50 turn out when COc1ccc(CSc2nnc3sc(-c4c(F)cccc4Cl)c(-c4ccc(F)cc4)n23)cc1F [Example 94] was run?
A: 0.5 to 5 µM

Q: How did the EC50 turn out when Fc1ccc(-c2c(-c3c(F)cccc3Cl)sc3nnc(Cc4ccc5c(c4)OCO5)n23)cc1 [Example 97] was run?
A: 5 to 50 µM

Q: CC(c1ccccc1)c1sc2nnc(SCc3c(F)cccc3Cl)n2c1-c1ccc(F)cc1 (centres unmarked) [Example 98] was tested. Which EC50 did it give?
A: 5 to 50 µM

Q: COc1ccc(Cc2sc3nnc(SCc4c(F)cccc4Cl)n3c2-c2ccc(F)c(Cl)c2)cc1Cl [Example 100] was tested. Which EC50 did it give?
A: 0.5 to 5 µM

Q: How did the EC50 turn out when COc1ccc(Cc2sc3nnc(SCc4ccc(F)cc4F)n3c2-c2ccc(F)c(Cl)c2)cc1Cl [Example 106] was run?
A: 0.5 to 5 µM

Q: Which EC50 does the source give for Cc1ccc(-c2csc3nnc(SCc4c(F)cccc4Cl)n23)cc1 [Example 109] here?
A: < 0.5 µM

Q: COc1cc(Br)c(Cc2sc3nnc(SCc4c(F)cccc4Cl)n3c2-c2ccc(F)c(Cl)c2)c(Br)c1OC [Example 112] was tested. Which EC50 did it give?
A: 0.5 to 5 µM

Q: For Cc1cc(-c2csc3nnc(SCc4ccc5c(c4)OCO5)n23)ccc1F [Example 115], which EC50 is on record?
A: < 0.5 µM

Q: With Fc1cccc(Cl)c1CSc1nnc2scc(-c3cccc(Cl)c3)n12 [Example 117] as the molecule, how does the EC50 read?
A: 0.5 to 5 µM

Q: Which EC50 does the source give for COc1cc(Br)c(Cc2sc3nnc(SCc4c(F)cccc4Cl)n3c2-c2ccc(F)c(Cl)c2)cc1OC [Example 119] here?
A: 0.5 to 5 µM

Q: How did the EC50 turn out when Cc1ccc(N(C)c2nnc3scc(-c4cc(Cl)ccc4Cl)n23)cc1Cl [Example 120] was run?
A: 0.5 to 5 µM

Q: How did the EC50 turn out when COc1cc(Cl)c(Cc2sc3nnc(SCc4ccc5c(c4)OCO5)n3c2-c2cccc(Cl)c2)cc1OC [Example 127] was run?
A: 0.5 to 5 µM

Q: For c1ccc2cc(-c3csc4nnc(SCc5ccc6c(c5)OCO6)n34)ccc2c1 [Example 131], which EC50 is on record?
A: 5 to 50 µM

Q: For Fc1cccc(Cl)c1CSc1cnc2scc(-c3cccc(Cl)c3)n12 [Example 138, 5-[(2-chloro-6-fluoro-phenyl)methylsulfanyl]-3-(3-chlorophenyl)imidazo[2,1-b]thiazole], which EC50 is on record?
A: 0.5 to 5 µM
